± gives the expanded uncertainty stated by the source.
Test: xn = mol fraction of the nth substance listed
Details: 101.3 kPa, Liquid; for viscosity: Capillary tube (Ostwald / Ubbelohde) method

OCCCCO [1,4-butanediol] + O
Details	mass density, 308.15 K [kg/m3]	mass density, 318.15 K [kg/m3]	speed of sound, 308.15 K [m/s]	speed of sound, 318.15 K [m/s]	viscosity, 308.15 K [mPa·s]	viscosity, 318.15 K [mPa·s]
x2 = 0.055	1007.37 ± 0.36	1001.62 ± 0.35	1591 ± 6.5	1574.6 ± 6.4	–	27.43 ± 0.14
x2 = 0.1534	1008.7 ± 0.35	1002.81 ± 0.34	1604.6 ± 6.5	1586.7 ± 6.5	–	24.34 ± 0.12
x2 = 0.2472	1010.06 ± 0.35	1004.04 ± 0.33	1617.7 ± 6.6	1598.8 ± 6.5	–	21.39 ± 0.11
x2 = 0.3542	1011.78 ± 0.34	1005.59 ± 0.32	1637.1 ± 6.6	1615.4 ± 6.6	–	18.04 ± 0.1
x2 = 0.4531	1013.29 ± 0.33	1006.95 ± 0.31	1655.1 ± 6.7	1632.8 ± 6.6	–	15 ± 0.091
x2 = 0.498	1013.88 ± 0.33	1007.49 ± 0.31	1662.5 ± 6.7	–	–	13.63 ± 0.087
x2 = 0.5578	1014.52 ± 0.33	–	1671 ± 6.7	–	–	11.84 ± 0.082
x2 = 0.6513	1014.99 ± 0.32	–	1684.1 ± 6.8	–	–	9.148 ± 0.075
x2 = 0.7496	1014.15 ± 0.31	–	1693 ± 6.8	–	–	6.533 ± 0.07
x2 = 0.8475	1010.43 ± 0.29	–	1685.5 ± 6.8	–	–	4.179 ± 0.067
x2 = 0.9081	1005.69 ± 0.27	–	1655 ± 6.7	–	–	2.8 ± 0.065
x2 = 0.9152	1004.98 ± 0.27	–	1648.7 ± 6.7	–	–	2.639 ± 0.065
x2 = 0.9253	1003.91 ± 0.27	–	1639.7 ± 6.6	–	–	2.408 ± 0.064
x2 = 0.9355	1002.76 ± 0.26	–	1628.5 ± 6.6	–	–	2.173 ± 0.064
x2 = 0.9543	1000.47 ± 0.26	–	1604.2 ± 6.5	–	–	1.732 ± 0.064
x2 = 0.955	1000.37 ± 0.26	–	1603 ± 6.5	–	–	1.716 ± 0.064
x2 = 0.9597	999.76 ± 0.26	–	1595.9 ± 6.5	–	2.255 ± 0.064	1.604 ± 0.064
x2 = 0.9699	998.39 ± 0.26	–	1579.2 ± 6.4	–	1.881 ± 0.064	1.357 ± 0.063
x2 = 0.9804	996.91 ± 0.26	–	1560.2 ± 6.4	–	1.487 ± 0.064	1.098 ± 0.063
x2 = 0.9901	995.5 ± 0.27	–	1540.2 ± 6.3	–	1.112 ± 0.064	0.853 ± 0.063
x2 = 0.9924	995.16 ± 0.27	–	1535.5 ± 6.3	–	1.022 ± 0.063	0.794 ± 0.063
x2 = 0.9955	994.7 ± 0.27	–	1528.5 ± 6.3	–	0.899 ± 0.063	0.714 ± 0.063
